The values below are quoted from earlier work in US12454515B2, “2-aminoindane compounds for mental disorders or enhancement” (Tactogen Inc, priority 2020, dated 2025).

Usually EC50 stands for the concentration at which the effect is half-maximal.

Each structure is given as a SMILES string.

The test system of the data set is neuritogenesis. The note with it: literature value.

For the compound `CNC(C)Cc1ccc2c(c1)OCO2` (centres unmarked) [MDMA], the EC50 (Ly et al. Cell reports 23 (2018) Figure S3, read-out: EC50 for promoting neuritogenesis) is 7.41 nM. Besides, under “relative to ketamine, Ly et al. 2018”, the “Emax for promoting neuritogenesis” value was “approximately twice that of ketamine”.
